Test results from BindingDB's records for patent US10399948 (Vanderbilt University, 2019).

The compounds below were run against Metabotropic glutamate receptor 5 (Rattus norvegicus, UniProt P31424) (assay: mGlu5 Ca2+ Flux Assay).
Chain of Metabotropic glutamate receptor 5 (P31424 whole entry): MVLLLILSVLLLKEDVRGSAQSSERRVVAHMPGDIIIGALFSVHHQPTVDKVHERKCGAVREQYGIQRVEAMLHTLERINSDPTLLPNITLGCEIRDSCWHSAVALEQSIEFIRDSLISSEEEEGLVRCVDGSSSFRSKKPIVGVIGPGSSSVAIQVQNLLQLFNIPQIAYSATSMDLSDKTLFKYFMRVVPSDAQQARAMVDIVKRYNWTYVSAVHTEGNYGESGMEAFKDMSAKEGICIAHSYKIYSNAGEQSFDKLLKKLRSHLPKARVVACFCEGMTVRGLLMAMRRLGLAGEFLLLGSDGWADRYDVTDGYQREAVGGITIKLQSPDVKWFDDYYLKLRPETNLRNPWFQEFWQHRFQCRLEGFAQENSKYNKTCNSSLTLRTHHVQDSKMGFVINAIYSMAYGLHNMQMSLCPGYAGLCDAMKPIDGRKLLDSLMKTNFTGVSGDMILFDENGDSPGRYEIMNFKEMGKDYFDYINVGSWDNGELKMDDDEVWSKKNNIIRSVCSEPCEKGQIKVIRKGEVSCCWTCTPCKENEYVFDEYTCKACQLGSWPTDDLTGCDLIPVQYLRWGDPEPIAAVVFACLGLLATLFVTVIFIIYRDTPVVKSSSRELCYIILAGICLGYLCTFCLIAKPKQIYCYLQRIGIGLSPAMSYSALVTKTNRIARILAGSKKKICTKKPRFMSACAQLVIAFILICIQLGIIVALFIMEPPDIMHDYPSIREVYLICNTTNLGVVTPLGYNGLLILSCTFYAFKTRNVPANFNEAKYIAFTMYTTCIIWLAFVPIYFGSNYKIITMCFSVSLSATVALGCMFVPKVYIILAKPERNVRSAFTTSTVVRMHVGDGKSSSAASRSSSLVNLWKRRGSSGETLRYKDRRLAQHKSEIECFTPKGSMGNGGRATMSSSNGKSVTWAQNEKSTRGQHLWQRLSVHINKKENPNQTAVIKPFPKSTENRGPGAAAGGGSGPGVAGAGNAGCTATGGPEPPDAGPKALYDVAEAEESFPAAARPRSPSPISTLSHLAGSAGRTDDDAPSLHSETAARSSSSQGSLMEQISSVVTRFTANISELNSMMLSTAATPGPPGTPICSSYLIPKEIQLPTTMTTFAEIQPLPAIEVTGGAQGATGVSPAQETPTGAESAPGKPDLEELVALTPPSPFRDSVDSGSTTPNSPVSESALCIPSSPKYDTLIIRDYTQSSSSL
Description: HEK 293A cells stably expressing rat mGlu5 were plated in black-walled, clear-bottomed, poly-D-lysine coated 384-well plates in 20 μL of assay medium (DMEM containing 10% dialyzed FBS, 20 mM HEPES, 100 units/mL penicillin/streptomycin plus 250 ng/mL Fungizone, and 1 mM sodium pyruvate) at a density of 20K cells/well. The cells were grown overnight at 37° C. in the presence of 5% CO2. The next day, medium was removed and the cells incubated with 20 μL of […] Fluo-4, AM prepared as a 2.3 mM stock in DMSO and mixed in a 1:1 ratio with 10% (w/v) pluronic acid F-127 and diluted in assay buffer (Hank's balanced salt solution, 20 mM HEPES, and 2.5 mM probenecid) for 45 minutes at 37° C. Dye was removed, 20 μL of assay buffer was added, and the plate was incubated for 5 minutes at room temperature.Ca2+ flux was measured using the Functional Drug Screening System (FDSS7000, Hamamatsu, Japan). After establishment of a fluorescence baseline for about 3 seconds, the compounds of the present invention were added to the cells, and the response in cells was measured. 2.3 minutes later an EC20 concentration of the mGlu5 receptor agonist glutamate was added to the cells, and the response of the cells was measured for 1.9 minutes; an EC80 concentration of agonist was added and readings taken for an additional 1.7 minutes. All test compounds were dissolved and diluted to a concentration of 10 mM in 100% DMSO. Compounds were then serially diluted 1:3 in DMSO into 10 point concentration response curves, transferred to daughter plates, and further diluted into assay buffer to a 2× stock. Calcium fluorescence measures were recorded as fold over basal fluorescence; raw data was then normalized to the maximal response to glutamate. Potentiation of the agonist response of the mGlu5 receptor in the present invention was observed as an increase in response to submaximal concentrations of glutamate in the presence of compound compared to the response to glutamate in the absence of compound. Antagonism of the agonist response of the mGlu5 receptor in the present invention was observed as a decrease in response to nearly maximal concentrations of glutamate in the presence of compound compared to the response to glutamate in the absence of compound.The raw data file containing all time points was used as the data source in the analysis template. This was saved by the FDSS as a tab-delimited text file. Data were normalized using a static ratio function (F/F0) for each measurement of the total 360 values per well divided by each well's initial value. Data were then reduced to peak amplitudes (Max−Initial Min) using a time range that starts approximately 3 seconds prior to the glutamate EC20/EC80 addition and continues for approximately 90-120 seconds. This is sufficient time to capture the peak amplitude of the cellular calcium response. Individual amplitudes were expressed as % EMax by multiplying each amplitude by 100 and then dividing the product by the mean of the amplitudes derived from the glutamate ECMax-treated wells. EC50 values for test compounds were generated by fitting the normalized values versus the log of the test compound concentration (in mol/L) using a 4 parameter logistic equation where none of the parameters were fixed. Each of the three values collected at each concentration of test compound were weighted evenly
With `O=c1nc(OCCOc2ccccc2)ccn1-c1cccc(F)c1` [US10399948, Compound 14] the IC50 was 3.54 µM.
`O=c1nc(OCCOc2ccccc2)ccn1-c1ccc(F)c(F)c1` [US10399948, Compound 15] gave an IC50 of 0.427 µM.
`O=c1nc(OCCOc2ccccc2)ccn1-c1ccc(F)cc1` [US10399948, Compound 17] was tested, and the IC50 was 1.19 µM.
`N#Cc1cccc(-n2ccc(OCCOc3ccccc3)cc2=O)c1` [US10399948, Compound 22] was tested, and the IC50 was 6.02 µM.
With `N#Cc1cc(F)cc(-n2ccc(OCCOc3ccccc3)cc2=O)c1` [US10399948, Compound 23] the IC50 was 1.31 µM.
Compound `O=c1cc(OCCOc2cc(Cl)ccn2)ccn1-c1ccc(F)cc1` [US10399948, Compound 49] has an IC50 of 8.8 µM.
For `O=c1cc(OCCOc2ncccc2Cl)ccn1-c1ccc(F)cc1` [US10399948, Compound 54], the IC50 was 7.82 µM.
